Laboratory results reported in patent US4757139A, “5-fluoro-2'-deoxyuridine derivative, processes for preparing same and antitumor composition containing the same” (Teijin Limited, priority 1983, dated 1988).

What was measured:
[1] = Rate of hydrolysis of 5-fluoro-2'-deoxyuridine derivatives by esterase; assay type: in vitro ADME, porcine; details: pig, liver esterase, pH 7, enzyme concentration 150.0 units/ml, pH 7.00, 37° C.; read-out: t 1/2 (time for 1/2 of the derivative to be converted into parent compound)
Experimental: Rate of hydrolysis of 5-fluoro-2'-deoxyuridine derivatives by esterase […] A 10 μg/ml isotonic solution of the experimental compound in a phosphate buffer (pH 7.00) was prepared and the […] (manufactured by Sigma) extracted from the porcine liver was added to the solution at 37° C. in such a way as to provide the enzyme concentration ranging from 0.03 units/ml to 150 units/ml. Then the sample (10 μl) was injected into an HPLC column periodically to determine the amount of 5-fluoro-2'-deoxyuridine release by the enzyme reaction.

[2] = Release of FUdR from the compound due to the enzyme system in the plasma; assay type: in vitro ADME; details: 4×10^-5 M compound (FUdR 9.85 μg/ml), 20% rat plasma, pH 7.0, 37° C.
Experimental: Behavior to release FUdR from the compound due to the enzyme system in the plasma
The release rates of 5-fluoro-2'-deoxyuridine (FUdR) from the compound of this invention at 37° C. in the rat plasma (20%), diluted with 0.1M phosphate buffer, pH 7.0, were measured.
The compound of this invention was added to the plasma diluted with an isotonic solution of phosphate buffer to a concentration of 4×10^-5 M (corresponding to FUdR 9.85 μg/ml) and was incubated at 37° C. The sample (10 μl) was injected into an HPLC column periodically to determine the amount (μg/ml) of 5-fluoro-2'-deoxyuridine released by the enzymatic reaction.

mouse leukemia L1210 = assay: Antitumor activity against mouse leukemia L1210, oral administration; assay type: in vivo, BDF1 mice
Experimental: (§1) The respective agents were administered orally three times, i.e. on the first day, third day, and fifth day, starting 24 hours after the implantation of tumor cells.

[3] = system: mouse leukemia cells L1210; assay: Antitumor activity against mouse leukemia L1210, intraperitoneal administration
Text: Antitumor activity of 5-fluoro-2'-deoxyuridine derivatives (in intraperitoneal administration)
Experiments were made with the 5-fluoro-2'-deoxyuridine derivatives of this invention in order to know its antitumor effect against mouse leukemia cells L1210 in comparison with its parent compound 5-fluoro-2'-deoxyuridine and other known antitumor agents.
BDF1 mice (male, 6-week-old, Ca 24 g, in groups of 5 mice), which were abdominally implanted with 10^5 cells of mouse leukemia L1210, which had been collected after 7-day cultivation in other mice, were used in the experiments.
The respective agents were given to the experimental mice intraperitoneally once a day for 5 consecutive days starting 24 hours after the implantation of tumor cells.
The antitumor effect of the respective agents were indicated by the rate of increase in the length of the survival period obtained from the groups given the agents in contrast with the length of the survival period of the control group (not given the agents).
The dose, which is required to increase the lifespan of the experimental mice 30% as compared with the control group, is indicated by ILS30 and the dose, which is required to effect the maximum increase of lifespan (Max. ILS(%)), is indicated by ILS max. ILS max./ILS30 is to represent the therapeutic index which indicates the safety of the agents.

[4] = Change in body weight of L1210-bearing mice, oral administration; assay type: in vivo, BDF1 mice; details: days 1-4
Experimental: as §1

[5] = i.p. once a day for 5 consecutive days, L1210-bearing BDF1 mice

CCCCCCCCCCCC(=O)OC[C@H]1O[C@@H](n2cc(F)c(=O)[nH]c2=O)C[C@@H]1OC(=O)CCCCCCCCCCC [3',5'-didodecanoyl-5-fluoro-2'-deoxyuridine]
half-life [1]: 66.7 h | Release rate of 5-fluoro-2'-deoxyuridine ([2]; after 100 min): 1.2 µg/mL | Release rate of 5-fluoro-2'-deoxyuridine ([2]; after 200 min): 2.2 µg/mL | Release rate of 5-fluoro-2'-deoxyuridine ([2]; after 300 min): 2.9 µg/mL | Release rate of 5-fluoro-2'-deoxyuridine ([2]; after 400 min): 3.8 µg/mL | Release rate of 5-fluoro-2'-deoxyuridine ([2]; after 500 min): 4.2 µg/mL | Antitumor effect in oral administration compared with 5-fluoro-2'-deoxyuridine and 3',5'-dioctanoyl-5-fluoro-2'-deoxyuridine (mouse leukemia L1210; L1210-bearing mice, result in words): much higher antitumor effect | ILS (%) (mouse leukemia L1210; days 1, 3, 5, dose 10 mg/kg/day): 0% | ILS (%) (mouse leukemia L1210; days 1, 3, 5, dose 30 mg/kg/day): 5% | ILS (%) (mouse leukemia L1210; days 1, 3, 5, dose 100 mg/kg/day): 15% | ILS (%) (mouse leukemia L1210; days 1, 3, 5, dose 300 mg/kg/day): 40% | ILS30 (dose required to increase lifespan 30%) [3, 5]: 1.0 µmol·days/kg | Max. ILS (%) [3, 5]: 62% | Therapeutic index (ILS max./ILS30) ([3]; mouse, in vivo, ip): 45.0 | Change in body weight (1-4 d, g/mouse) ([4]; dose 10 mg/kg/day): +1.0 g/mouse | Change in body weight (1-4 d, g/mouse) ([4]; dose 30 mg/kg/day): +1.0 g/mouse | Change in body weight (1-4 d, g/mouse) ([4]; dose 100 mg/kg/day): 0 g/mouse | Change in body weight (1-4 d, g/mouse) ([4]; dose 300 mg/kg/day): -2.6 g/mouse
